These results are taken from ChEMBL document CHEMBL1201862, “PubChem BioAssay data set” (2004).

Test systems include 786-0; SR; UO-31; Hs-578T; SK-MEL-5; TK-10; OVCAR-5; CCRF-CEM; HCT-116; SN12C; EKVX; BT-549; NCI-H23; NCI-H522; NCI-H460; A498; NCI-H226; ACHN; COLO 205; MDA-N.
Common to all, as to assay: growth of human tumour cells (NCI), 48 h

Molecules are shown by their SMILES.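 Each compound was tested at five concentrations against cells in 96-well plates for 48 hours. GI50 marks 50% less growth.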 The source made the active and inactive calls. No stated cut-off is given here; in the data, active = GI50 up to about 1.1 µM and inactive = higher.

For `Cc1nc2ccccc2c(=O)n1NC(=O)c1ccccc1[N+](=O)[O-]`, the GI50 in the assay with 786-0 was > 100 µM (inactive); in the assay with SR, > 100 µM (inactive); in the assay on UO-31, > 100 µM (inactive); in the assay on Hs-578T it was 33.9 µM (inactive); in the assay on SK-MEL-5, > 100 µM (inactive); with TK-10, > 100 µM (inactive). Besides, the GI50 in the assay with OVCAR-5 is > 100 µM (inactive); with CCRF-CEM it was > 100 µM (inactive); in the assay with HCT-116, > 100 µM (inactive); with SN12C it was > 100 µM (inactive); in the assay with EKVX, 71.4 µM (inactive); in the assay with BT-549 it was > 100 µM (inactive). The GI50 in the assay with NCI-H23, in the assay on NCI-H522, in the assay on NCI-H460, in the assay with A498, with NCI-H226 and in the assay on ACHN was > 100 µM (inactive) each time.

Take `CC[C@]1(Cc2ccc(OC)c(OC)c2)C=[N+]([O-])O[C@H](OC2CCCC2(c2ccccc2)c2ccccc2)[C@@H]1OC(C)=O` (stereo partly specified): the GI50 is 1.6 µM (inactive) with 786-0; 2.79 µM (inactive) in the assay on SR; 3.12 µM (inactive) with UO-31; 13.1 µM (inactive) with Hs-578T; 3.55 µM (inactive) with SK-MEL-5; 3.02 µM (inactive) in the assay on TK-10. The GI50 with OVCAR-5 was 16.7 µM (inactive); with CCRF-CEM it was 4.1 µM (inactive); with HCT-116, 2.08 µM (inactive); with SN12C, 4.12 µM (inactive); in the assay on EKVX, 5.89 µM (inactive); in the assay on BT-549, 8.47 µM (inactive). The GI50 in the assay with NCI-H23 is 5.25 µM (inactive); in the assay with NCI-H522 it was 2.83 µM (inactive); with NCI-H460, 5.4 µM (inactive); in the assay with ACHN it was 2.4 µM (inactive); in the assay on COLO 205, 3.35 µM (inactive).

Regarding `[N-]=[N+]=Nc1ccc(NCCCCCC(=O)ON2C(=O)CCC2=O)c([N+](=O)[O-])c1`, the GI50 in the assay with 786-0 is > 100 µM (inactive); with UO-31, 46.3 µM (inactive); in the assay with Hs-578T it was < 0.01 µM (active); in the assay with SK-MEL-5 it was 41.1 µM (inactive); in the assay on TK-10, 42.1 µM (inactive); in the assay with OVCAR-5 it was 44.2 µM (inactive). Also, the GI50 was 39.6 µM (inactive) in the assay with HCT-116; 27.4 µM (inactive) in the assay with SN12C; 98.9 µM (inactive) with EKVX; > 100 µM (inactive) in the assay with BT-549; 66.7 µM (inactive) in the assay with NCI-H23; 39.3 µM (inactive) in the assay on NCI-H522. Also, the GI50 with NCI-H460 was 61.7 µM (inactive); in the assay on NCI-H226, > 100 µM (inactive); in the assay on ACHN, 49.1 µM (inactive); in the assay with COLO 205 it was > 100 µM (inactive).

Regarding `CC1=NOC2(C1)C(=O)Nc1ccccc12` (stereo unspecified), the GI50 in the assay on 786-0 was > 100 µM (inactive); in the assay on SR it was > 100 µM (inactive); in the assay with UO-31, 0.0121 µM (active); in the assay on Hs-578T, > 100 µM (inactive); in the assay with SK-MEL-5 it was 60.5 µM (inactive); in the assay on TK-10, > 100 µM (inactive). The GI50 in the assay with OVCAR-5, with CCRF-CEM, in the assay with HCT-116, with SN12C, in the assay on EKVX and with NCI-H23 was > 100 µM (inactive) each time. Further, the GI50 in the assay with NCI-H522 was > 100 µM (inactive); in the assay with NCI-H460 it was > 100 µM (inactive); with MDA-N it was > 100 µM (inactive); with A498, 34.3 µM (inactive); in the assay with NCI-H226, 50.8 µM (inactive); with ACHN, > 100 µM (inactive). Besides, the GI50 in the assay with COLO 205 was > 100 µM (inactive).

For `CC(C)SC(NC(=O)C1C(C)(C)CCC1(C)C)C(=O)O` (stereo unspecified), the GI50 in the assay with 786-0, in the assay on UO-31, in the assay with Hs-578T, in the assay with SK-MEL-5, in the assay with TK-10 and in the assay on OVCAR-5 was > 100 µM (inactive) in each case. Also, the GI50 with CCRF-CEM, in the assay on HCT-116, in the assay on SN12C, with EKVX, in the assay on NCI-H23 and in the assay on NCI-H460 was > 100 µM (inactive) throughout. Moreover, the GI50 with MDA-N, in the assay on A498, in the assay on NCI-H226, with ACHN and in the assay on COLO 205 was > 100 µM (inactive) in each case.

As to `CN(C)CCCOc1nc2c(c(=O)n(C)c(=O)n2C)n1C.SC1=NC=NC2=NC=NC12`, the GI50 was 2.41 µM (inactive) with 786-0; 3.73 µM (inactive) in the assay with UO-31; 16 µM (inactive) in the assay with Hs-578T; 11.1 µM (inactive) with SK-MEL-5; 0.482 µM (active) in the assay on TK-10; 23.4 µM (inactive) with OVCAR-5. Moreover, the GI50 in the assay on CCRF-CEM was 2.17 µM (inactive); in the assay with HCT-116 it was 5.62 µM (inactive); in the assay on SN12C it was 4.06 µM (inactive); in the assay with EKVX, 33.7 µM (inactive); with BT-549 it was 11.3 µM (inactive); in the assay on NCI-H23, 6.71 µM (inactive). The GI50 was 2.79 µM (inactive) in the assay with NCI-H522; 8.43 µM (inactive) in the assay on NCI-H460; 32.8 µM (inactive) with A498; 2.15 µM (inactive) with NCI-H226; 6.84 µM (inactive) in the assay on ACHN; 4.3 µM (inactive) in the assay on COLO 205.

With `O=C1CCC2c3ccccc3NCN12` (stereo unspecified), the GI50 with 786-0, in the assay on UO-31, in the assay on Hs-578T, in the assay on SK-MEL-5, in the assay with TK-10 and in the assay with OVCAR-5 was > 100 µM (inactive) in each case. For the same compound, the GI50 in the assay with CCRF-CEM, with HCT-116, in the assay on SN12C, in the assay on EKVX, in the assay on NCI-H23 and in the assay on NCI-H522 was > 100 µM (inactive) throughout. The GI50 in the assay on NCI-H460, with MDA-N, in the assay with A498, with NCI-H226, with ACHN and in the assay on COLO 205 was > 100 µM (inactive) each time.

Take `COc1cc(-c2cc(CCC(=O)Nc3ccccc3[N+](=O)[O-])n(-c3ccc([N+](=O)[O-])cc3[N+](=O)[O-])n2)ccc1O`: the GI50 in the assay on 786-0, with SR, with UO-31, with SK-MEL-5, in the assay with TK-10 and with OVCAR-5 was > 10 µM (inactive) throughout. Also, the GI50 in the assay with CCRF-CEM, in the assay on HCT-116, in the assay with SN12C, in the assay with EKVX, with NCI-H23 and in the assay on NCI-H522 was > 10 µM (inactive) each time. Moreover, the GI50 was > 10 µM (inactive) in the assay on NCI-H460; > 10 µM (inactive) in the assay on A498; > 10 µM (inactive) with NCI-H226; 70.6 µM (inactive) in the assay with ACHN; > 10 µM (inactive) in the assay on COLO 205.

Turning to `COC(=O)/C=C1\C(CO[Si](C)(C)C(C)(C)C)OC(n2cc(C)c(=O)n(C)c2=O)C1O[Si](C)(C)C(C)(C)C` (stereo unspecified), the GI50 was > 100 µM (inactive) in the assay on 786-0; > 100 µM (inactive) in the assay on UO-31; > 100 µM (inactive) with Hs-578T; 69.7 µM (inactive) with SK-MEL-5; > 100 µM (inactive) in the assay on TK-10; > 100 µM (inactive) in the assay with OVCAR-5. For the same compound, the GI50 in the assay on CCRF-CEM is > 100 µM (inactive); in the assay with HCT-116 it was 71.4 µM (inactive); in the assay with SN12C it was > 100 µM (inactive); in the assay with EKVX, > 100 µM (inactive); with NCI-H23, > 100 µM (inactive); in the assay on NCI-H522, 78 µM (inactive). The GI50 with MDA-N, in the assay on A498, with NCI-H226, in the assay on ACHN and with COLO 205 was > 100 µM (inactive) throughout.

For the compound `C/C=C/C(C#N)(/C=C/c1ccccc1)OP1(=O)OC(c2ccccc2)C(C)N1C` (stereo unspecified), the GI50 in the assay on 786-0 was 17.1 µM (inactive); in the assay on UO-31, 17.8 µM (inactive); in the assay on Hs-578T it was 22.4 µM (inactive); in the assay with SK-MEL-5 it was 16.9 µM (inactive); with TK-10, 19.9 µM (inactive); with OVCAR-5 it was 20.1 µM (inactive). Also, the GI50 with CCRF-CEM is 11 µM (inactive); in the assay on HCT-116 it was 16.6 µM (inactive); in the assay on SN12C, 19.2 µM (inactive); in the assay on EKVX, 20.6 µM (inactive); in the assay on NCI-H522, 20.7 µM (inactive); in the assay on NCI-H460 it was 17.9 µM (inactive). The GI50 in the assay with MDA-N was 20.3 µM (inactive); with A498, 20.1 µM (inactive); in the assay on ACHN, 26.9 µM (inactive); with COLO 205 it was 17.2 µM (inactive).

Regarding `CC(C)(C)OC(=O)C1CC[C@@H](CC(=O)Oc2ccc([N+](=O)[O-])cc2)N1` (stereo partly specified), the GI50 in the assay with 786-0 was > 100 µM (inactive); with SR, 59 µM (inactive); in the assay with UO-31 it was > 100 µM (inactive); with SK-MEL-5, > 100 µM (inactive); in the assay with TK-10 it was > 100 µM (inactive); in the assay with OVCAR-5, > 100 µM (inactive). In addition, the GI50 in the assay with CCRF-CEM, with HCT-116, in the assay with SN12C, with EKVX, in the assay on NCI-H23 and in the assay with NCI-H522 was > 100 µM (inactive) in each case. For the same compound, the GI50 in the assay with NCI-H460, in the assay on MDA-N, in the assay with A498, in the assay on NCI-H226, in the assay on ACHN and with COLO 205 was > 100 µM (inactive) throughout.
